Like-named read-outs stand apart in the source and are kept apart here. Where a SMILES comes first, the peptide text is derived from it.
Tests used:
[1] = system: plasma LH concentration; experiment: In vivo activity test: plasma LH concentration in ewes after injection of the peptide compound; design: species or system ewes of the Ile de France breed; conditions: for increase in the plasma concentration of LH (% of Comp.1 maximum stimulation): FIG. 4
Method: The tests were carried out on ewes of the Ile de France breed, either in the anestrus period for the comparative compounds Comp.1 and Comp.3, or in the estrus period for the comparative compound Comp.1 and for the compounds in accordance with the invention C1, C4 and C6. The ewes used in the estrus period were pretreated with a vaginal sponge containing 20 mg of fluorogestone acetate (Chronogest CR sponge, Intervet) in order to block the secretion of LH and to stimulate a luteal phase.
Five days after the insertion of the sponge (for the animals in the estrus period) or the day before the test (for the animals in the anestrus period), a catheter was inserted into the jugular vein of the animal. On the day of the test, the peptide compound to be tested was injected into the catheter, at the desired dose (5 nmol/ewe), diluted in 1 ml of physiological solution. Physiological saline containing heparin (3 ml) was injected immediately after the peptide compound in order to rinse the catheter and to carry all of the compound into the animal's bloodstream.
A negative control (T) consisting of physiological solution alone was also carried out.
Before and following the injection of the test compound, blood samples were taken at variable intervals between 10 min and 1 h, for a period of between 3 h and 30 h.
The blood samples were centrifuged, and the plasma was stored at −20° C. until it was used to measure the LH concentration, according to an RIA method described in the literature (Caraty et al., 2007).
The tests were carried out on ewes of the Ile de France breed in the anestrus period, in the same way as above with reference to the 1st experiment (without any treatment with progesterone). In particular, for all the animals, the day before the test, a catheter was inserted into the jugular vein of the animal. On the day of the test, the peptide compound to be tested was injected into the catheter, at the desired dose (5 nmol/ewe), diluted in 1 ml of physiological solution.
The tests were carried out on ewes of the Ile de France breed in the anestrus period, as indicated above with reference to the 1st experiment (without any treatment with progesterone). In particular, for all the animals, the day before the test, a catheter was inserted into the jugular vein of the animal. On the day of the test, the peptide compound to be tested was injected into the catheter, at the desired dose, diluted in 1 ml of physiological solution. For each compound, the following three doses were tested: 1 nmol/ewe, 5 nmol/ewe and 15 nmol/ewe. […]
Before and following the injection of the test compound, blood samples were taken at variable intervals between 10 min and 1 h, for a period of 10 h.
The blood samples were centrifuged, and the plasma was stored at −20° C. until it was used to measure the LH concentration, according to the RIA method described in the literature (Caraty et al., 2007).

[2] = Test for proteolytic degradation of the peptide compounds in ovine serum; format: in vitro ADME, ewes of the Ile de France breed; conditions: for remaining at 3 h, 50 μM: female, Ile de France, sheep
Method: In order to carry out this test, blood was collected from the jugular vein of ewes of the Ile de France breed, and centrifuged. The supernatant (serum) was stored at −20° C. until use.
The degradation in this serum of the various peptide compounds in accordance with the invention and of the comparative peptide compounds is monitored over time. To this effect, each peptide compound to be analyzed and the internal calibrant (L-phenylalaninol) are dissolved in milliQ water (0.5 mM and 6.6 mM, respectively). The commercial protease inhibitor cocktail (Sigma, ref. P8340) is supplied in solution in DMSO.
The serum and the stock solutions of peptide compounds are preheated at 39° C. for 30 minutes. Each solution of peptide compound (50 μl, i.e. a final concentration in the serum of 50 μM) and the solution of internal calibrant (25 μl) are mixed with 425 μl of serum and incubated at 39° C. The proteolytic degradation kinetics of the compounds are monitored by taking a sample, at various given times, of 75 μl of the solution, which are diluted with 150 μL of acetonitrile in order to precipitate the serum proteins. The suspension obtained is centrifuged at 14 000 revolutions/min for 10 min at 4° C.
The amount of peptide compound intact after incubation is determined by integration of the area of the peak, using L-phenylalaninol as internal calibrant. It is expressed as % of the area of the peak at time t=0.
The value corresponding to 100% of intact peptide compound is obtained by mixing 420 μl of serum, 5 μl of the inhibitor cocktail and 25 μl of the phenylalaninol solution, followed by 50 μl of peptide compound, and then by immediately treating the resulting solution according to the protocol described above.

[3] = biological target: T1, human KISS1R receptor (Homo sapiens, UniProt Q969F8); experiment: Intracellular calcium mobilization test in HEK293A cells expressing human KISS1R; format: cell-based
T1 construct: expressed in transfected cells
T1 sequence (Q969F8 whole entry): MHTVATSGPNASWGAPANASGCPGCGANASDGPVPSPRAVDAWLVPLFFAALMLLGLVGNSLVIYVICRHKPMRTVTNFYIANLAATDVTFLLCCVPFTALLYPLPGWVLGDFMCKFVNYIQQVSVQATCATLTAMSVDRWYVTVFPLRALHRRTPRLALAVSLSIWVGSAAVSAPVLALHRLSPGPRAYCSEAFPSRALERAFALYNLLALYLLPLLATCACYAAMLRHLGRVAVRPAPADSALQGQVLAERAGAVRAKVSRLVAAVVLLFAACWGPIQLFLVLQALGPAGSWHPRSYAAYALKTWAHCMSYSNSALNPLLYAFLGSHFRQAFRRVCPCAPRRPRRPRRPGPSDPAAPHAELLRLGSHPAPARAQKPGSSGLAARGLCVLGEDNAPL
From the text: In order to carry out the in vitro tests for the activity of the peptide compounds in accordance with the invention and the comparative compounds, the HEK293A cell line (ATCC, American Type Culture Collection, Manassas, Va., USA) was stably transfected with the human KISS1R receptor (Genbank accession number: NM_032551). The pcDNA3.1 vector (Invitrogen, Cergy Pontoise, France), into which the sequence of human KISS1R has been inserted with a 5′ HA tag at position 957-2150 bp, was used for the transfection. The transfection and the selection of the clones were carried out as described in the literature (Mancini et al. 2009, and Invitrogen website).
In order to verify the agonist activity and to measure the EC50 of the peptide compounds according to the invention, the following protocol was carried out.
HEK293A cells expressing the human KISS1R receptor were seeded into a 96-well plate (μClear® black plate) at the concentration of 40 000 cells/well, and placed in an incubator at 37° C. After 48 hours, the medium was changed and the cells were incubated with the fluorescent dye Fluo-4NW, according to the instructions of the manufacturer (Molecular Probe).
After having measured the basal fluorescence, 5 μl of the 20× solution containing the test compound were added to each well (containing 95 μl) so as to obtain the desired concentration. The variations in fluorescence were recorded every 7 seconds for 5-7 minutes with a plate reader (PolarStar Optima, BMG Labtech). Activity-concentration curves were generated using the GraphPad Prism 5 software, and the EC50 of each compound was calculated by adjusting the curve to a sigmoid.

[4] = system: LH peak / ovulation; conditions: cited from earlier work
[5] = 1st experiment, ewes in the estrus period, 5 nmol/ewe intravenous
[6] = 2nd experiment, ewes in the anestrus period, 5 nmol/ewe intravenous, FIGS. 6a-6d
[7] = intravenous, ewes at the end of the follicular phase

For CC(C)C[C@@H](C(=O)N[C@@H](CCCNC(=N)N)C(=O)N[C@@H](Cc1ccc(O)cc1)C(N)=O)n1cc(CNC(=O)[C@H](Cc2ccccc2)NC(=O)[C@H](CO)NC(=O)[C@H](CC(N)=O)NC(=O)[C@H](Cc2c[nH]c3ccccc23)NC(=O)[C@H](CC(N)=O)NC(=O)[C@@H](N)Cc2ccc(O)cc2)nn1 [Compound C1, H-Tyr-Asn-Trp-Asn-Ser-Phe-GlyΨ[Tz]Leu-Arg-Tyr-NH2] (HELM PEPTIDE1{Y.N.W.N.S.F.[CC(C)C[C@@H](C(=O)[*:2])n1cc(CN[*:1])nn1].R.Y.[am]}$$$$V2.0), the “increase in the plasma concentration of LH (% of Comp.1 maximum stimulation)” value (“increase … (% of Comp.1 maximum stimulation)” below) [1, 5] was “more active than the comparative compounds Comp.1 and Comp.3” and the “duration of action (LH concentration over time)” value [1, 6] was “sustained for longer over time than the comparative compounds Comp.1 and Comp.3”.

For CC(=O)N[C@@H](Cc1ccc(O)cc1)C(=O)N[C@@H](CC(N)=O)C(=O)N[C@@H](Cc1c[nH]c2ccccc12)C(=O)N[C@@H](CC(N)=O)C(=O)N[C@@H](CO)C(=O)N[C@@H](Cc1ccccc1)C(=O)NCc1cn([C@@H](CC(C)C)C(=O)N[C@@H](CCCNC(=N)N)C(=O)N[C@@H](Cc2ccc(O)cc2)C(N)=O)nn1 [Compound C2, Ac-Tyr-Asn-Trp-Asn-Ser-Phe-GlyΨ[Tz]Leu-Arg-Tyr-NH2] (HELM PEPTIDE1{[ac].Y.N.W.N.S.F.[CC(C)C[C@@H](C(=O)[*:2])n1cc(CN[*:1])nn1].R.Y.[am]}$$$$V2.0), the “lifetime in ovine serum (in words)” value [2] was “clearly prolonged in comparison with that of the comparative peptide compound Comp.3”, the remaining at 3 h, 50 μM ([2]; serum) was 46% and the “total increase in the plasma LH concentration (AUC) over 9 hours” value ([1]; 2nd experiment, ewes in the anestrus period, 5 nmol/ewe intravenous, FIG. 7) was “significantly more active than the comparative compounds”. The “duration of action (LH concentration over time)” value [1, 6] was “sustained for longer over time than the comparative compounds Comp.1 and Comp.3”.

For CNC(=N)NCCC[C@H](NC(=O)[C@H](CC(C)C)n1cc(CNC(=O)[C@H](Cc2ccccc2)NC(=O)[C@H](CO)NC(=O)[C@H](CC(N)=O)NC(=O)[C@H](CCCCNC(C)=O)NC(=O)[C@H](CC(N)=O)NC(=O)[C@H](Cc2ccc(O)cc2)NC(C)=O)nn1)C(=O)N[C@@H](Cc1ccc(O)cc1)C(N)=O [Compound C4, Ac-Tyr-Asn-Lys(Ac)-Asn-Ser-Phe-GlyΨ[Tz]Leu-Arg(Me)-Tyr-NH2] (HELM PEPTIDE1{[ac].Y.N.K.N.S.F.[CC(C)C[C@@H](C(=O)[*:2])n1cc(CN[*:1])nn1].[CNC(=N)NCCC[C@H](N[*:1])C(=O)[*:2]].Y.[am]}|PEPTIDE2{[ac]}$PEPTIDE1,PEPTIDE2,4:R3-1:R2$$$V2.0), the remaining at 3 h, 50 μM ([2]; serum) was 59% and the “increase … (% of Comp.1 maximum stimulation)” value [1, 5] was “more active than the comparative compounds Comp.1 and Comp.3”.

With CNC(=N)NCCC[C@H](NC(=O)[C@H](CC(C)C)n1cc(CNC(=O)[C@H](Cc2ccccc2)NC(=O)[C@@H](NC(=O)[C@H](CC(N)=O)NC(=O)[C@@H](Cc2c[nH]c3ccccc23)NC(=O)[C@@H](Cc2ccc(O)cc2)NC(C)=O)[C@@H](C)O)nn1)C(=O)N[C@@H](Cc1c[nH]c2ccccc12)C(N)=O [Compound C6, Ac-DTyr-DTrp-Asn-Thr-Phe-GlyΨ[Tz]Leu-Arg(Me)-Trp-NH2] (HELM PEPTIDE1{[ac].[dY].[dW].N.T.F.[CC(C)C[C@@H](C(=O)[*:2])n1cc(CN[*:1])nn1].[CNC(=N)NCCC[C@H](N[*:1])C(=O)[*:2]].W.[am]}$$$$V2.0) the remaining at 3 h, 50 μM ([2]; serum) was 50%, the EC50 ([3]; HEK293A cells expressing human KISS1R, Fluo-4NW, read-out: EC50, intracellular calcium mobilization of cells expressing human KISS1R (Table 2)) was 10 pM and the “increase … (% of Comp.1 maximum stimulation)” value [1, 5] was “more active than the comparative compounds Comp.1 and Comp.3”.

With CCCCCCCCCCCCCCCC(=O)N[C@@H](CCC(=O)NCCCC[C@H](NC(=O)[C@H](Cc1ccc(O)cc1)NC(C)=O)C(=O)N[C@@H](Cc1c[nH]c2ccccc12)C(=O)N[C@@H](CC(N)=O)C(=O)N[C@@H](CO)C(=O)N[C@@H](Cc1ccccc1)C(=O)NCc1cn([C@@H](CC(C)C)C(=O)N[C@@H](CCCNC(=N)N)C(=O)N[C@@H](Cc2ccc(O)cc2)C(N)=O)nn1)C(=O)O [Compound C8, Ac-Tyr-Lys(γ-(N-hexadecanoyl-Glu-OH))-Trp-Asn-Ser-Phe-GlyΨ[Tz]Leu-Arg-Tyr-NH2] (HELM PEPTIDE1{[ac].Y.K.W.N.S.F.[CC(C)C[C@@H](C(=O)[*:2])n1cc(CN[*:1])nn1].R.Y.[am]}|PEPTIDE2{[CCCCCCCCCCCCCCCC(=O)[*:2]].[gGlu]}$PEPTIDE1,PEPTIDE2,3:R3-2:R2$$$V2.0) the “duration of action (LH concentration over time)” value ([1]; 3rd experiment, ewes in the anestrus period, 1, 5 and 15 nmol/ewe intravenous, FIGS. 8a, 8b) was “even further sustained over time, and very significantly, than the compound C2”, the “LH secretion (AUC)” value ([1]; 3rd experiment, ewes in the anestrus period, 1, 5 and 15 nmol/ewe intravenous, FIGS. 9a, 9b) was “even more active than the compound C2” and the “LH secretion into the plasma after intramuscular injection” value ([1]; 4th experiment, ewes in the estrus period, 15 nmol/ewe intramuscular versus intravenous, FIG. 10) was “also effective, in vivo, by intramuscular injection”.

With “Ac-YNWNSFGLRY-NH2 [Comp. 3, reference compound]” the remaining at 3 h, 50 μM ([2]; ovine serum, 39° C., 50 μM, 3 h, % of the area of the HPLC peak at time t = 0, read-out: % of peptide intact after 3 h of incubation in the serum) was 11%, the “human KISS1R-stimulating power (in words)” value ([3]; calcium mobilization, compared with Comp.1) was “more powerful than Comp.1 (mKP10) in vitro” and the “efficiency and duration of the elevation of the plasma LH concentration” value ([1]; 1st experiment, ewes in the anestrus period, 5 nmol/ewe intravenous, FIG. 3, versus Comp.1) was “only minimally increases”.

For “KP10: decapeptide kisspeptin-10, endogenous KISS1R ligand; species form not stated for the cited ewe studies”, the “induction of an LH peak” value [4, 7] is given as “capable of inducing an LH peak”, the synchronization of ovulations [4, 7] is given as “synchronized to within one hour” and the “time from LH peak to ovulations” value [4, 7] is given as 21 h. For the same compound, the “reactivation of the gonadotropic axis and ovulation” value ([4]; prolonged infusion, period of sexual rest (seasonal anestrus)) was “capable of reactivating the gonadotropic axis and inducing ovulation”.

Reference: US9884891B2, “KISS1R receptor agonist compounds and use thereof for inducing ovulation in mammals” (INSTITUT NATIONAL DE LA RECHERCHE AGRONOMIQUE, priority 2013, dated 2018)
